Measured values from patent US8293909B2, “Compounds for the treatment of hepatitis C” (Bristol-Myers Squibb Company, priority 2008, dated 2012).

Key:
[1] = system: HCV; settings: cited from earlier work
[2] = biological target: T1, HCV NS5B RdRp genotype 1b (Hepatitis C virus genotype 1b, UniProt Q9WMX2); assay: HCV NS5B RdRp enzyme assay (standard / modified); format: biochemical; settings: HCV NS5B genotype 1b
T1 construct: The protein was expressed with an 18 amino acid C-terminal truncation to enhance the solubility; made in house; host or cells: E. coli BL21(DE3), pET21a vector
T1 sequence (Q9WMX2 2420-2992): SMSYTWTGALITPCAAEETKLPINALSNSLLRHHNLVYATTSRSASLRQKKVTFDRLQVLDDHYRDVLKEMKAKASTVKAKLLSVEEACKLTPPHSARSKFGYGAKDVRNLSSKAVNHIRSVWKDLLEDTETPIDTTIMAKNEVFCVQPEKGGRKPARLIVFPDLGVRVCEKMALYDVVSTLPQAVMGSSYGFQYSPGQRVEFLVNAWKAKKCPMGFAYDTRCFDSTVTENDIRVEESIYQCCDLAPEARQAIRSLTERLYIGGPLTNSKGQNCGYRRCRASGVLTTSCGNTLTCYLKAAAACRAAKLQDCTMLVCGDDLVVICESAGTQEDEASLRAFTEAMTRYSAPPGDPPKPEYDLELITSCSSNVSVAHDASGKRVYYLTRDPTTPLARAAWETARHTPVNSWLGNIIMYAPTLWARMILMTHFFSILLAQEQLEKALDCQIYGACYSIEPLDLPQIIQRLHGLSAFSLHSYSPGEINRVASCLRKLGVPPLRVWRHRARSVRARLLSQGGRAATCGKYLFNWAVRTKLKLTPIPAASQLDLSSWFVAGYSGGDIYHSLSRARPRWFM
Procedure, shortened: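 Genotype 1b NS5B with an 18-aa C-terminal truncation, expressed in E. coli, was tested by SPA incorporation of 3H-UTP (0.29 μM) on polyA/biotin-oligo-dT12. Standard assay: 28 nM enzyme, 6 nM template, 180 nM primer, 60 min at 30 °C, pH 7.5, 2% DMSO. Modified assay: 14 nM enzyme added to compound first, 0.2 nM template, 20 nM bead-precaptured primer, 4 h at 30 °C. IC50 used seven inhibitor concentrations.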

[3] = system: HCV replicon cells; assay: HCV replicon assay (FRET or luciferase readout); format: cell-based; settings: Hepatitis C virus
Procedure, shortened: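 Replicon cells (with or without Renilla luciferase reporter) incubated with titrated compounds at 37 °C; Alamar blue read for cytotoxicity first. NS3 protease activity read kinetically with 20 μM EDANS/DABCYL FRET peptide in lysis reagent plus 150 mM NaCl (ex 340/em 490), or by Dual-Glo luciferase. EC50 = 50% signal reduction after protease-inhibitor background subtraction.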

| Compound | IC50 ([2]; Table 1) | EC50 ([3]; Table 1) | also measured |
| --- | --- | --- | --- |
| CNC(=O)c1c(-c2ccc(F)cc2)oc2cc(N(CCO)S(C)(=O)=O)c(C3CC3)cc12 [HCV-796] |  |  | hepatic toxicity ([1]; extended dosing of the combination regimens with interferon and ribavirin): hepatic toxicity observed during extended dosing of the combination regimens; HCV RNA levels in patients ([1]; patients): showed an ability to reduce HCV RNA levels in patients |
| CNC(=O)c1c(-c2ccc(F)cc2)nn2ccc(-c3cc(C(=O)NC4(c5ccccc5)CC4)c(OC)cc3C)c(F)c12 [drawing 174] |  |  | IC50 ([2]; Table 2): 0.01 µM; EC50 ([3]; Table 2): 0.00392 µM |
| CNC(=O)c1c(-c2ccc(F)cc2)nn2ccc(-c3cc(C(=O)NC4(c5ccc(F)cc5)CC4)c(OC)cc3C)c(F)c12 | 0.002 to 0.25 µM | 0.002 to 0.25 µM |  |
| CNC(=O)c1c(-c2ccc(F)cc2)sc2ccc(-c3cccc(C(=O)NC(C)(C)C)c3)cc12 [drawing 85] | > 4.17 µM | 1 to 10 µM |  |
| CNC(=O)c1c(-c2ccc(F)cc2)nn2cc(N(CCO)S(C)(=O)=O)c(-c3cccc(C(=O)NC4(c5ccccn5)CC4)c3)cc12 [drawing 182] |  |  | IC50 ([2]; Table 2): 0.06 µM; EC50 ([3]; Table 2): 1.56 µM |
| CCN(c1cn2nc(-c3ccc(F)cc3)c(C(=O)NC)c2cc1C1CCCCC1)S(C)(=O)=O | 1 to 10 µM | 1 to 10 µM |  |
| CNC(=O)c1c(-c2ccc(F)cc2)nn2c(F)cc(-c3cc(C(=O)NC4(c5ccccc5)CC4)ccc3C)cc12 | 0.002 to 0.25 µM | 0.002 to 0.25 µM |  |
| CCN(c1cn2nc(-c3ccc(F)cc3)c(C(=O)NC)c2cc1-c1cccc(C(=O)NC2(c3ccccn3)CC2)c1)S(C)(=O)=O | 0.002 to 0.25 µM | 0.002 to 0.25 µM |  |
| CNC(=O)c1c(-c2ccc(F)cc2)nn2ccc(OC)cc12 | > 10 µM | > 10 µM |  |
| CNC(=O)c1c(-c2ccc(F)cc2)oc2cnc(-c3cc(C(=O)NC4(c5ccccn5)CC4)ccc3C)cc12 | 0.002 to 0.25 µM | 0.002 to 0.25 µM |  |
| CNC(=O)c1c(-c2ccc(F)cc2)nn2ccc(-c3cc(C(=O)NC4(C5CC5)CC4)c(OC)cc3C)c(F)c12 | 0.002 to 0.25 µM | 0.002 to 0.25 µM |  |
| CNC(=O)c1c(-c2ccc(F)cc2)nn2cc(N(CCOC)S(C)(=O)=O)c(-c3cccc(C(=O)NC(C)(C)c4ccccc4)c3)cc12 | 0.002 to 0.25 µM | 0.002 to 0.25 µM |  |
| CNC(=O)c1c(-c2ccc(F)cc2)nn2cc(NC(=O)OC(C)(C)C)ccc12 | > 10 µM | > 10 µM |  |
| CNC(=O)c1c(-c2ccc(F)cc2)nn2cc(-c3cccc(OC)c3)ccc12 | > 10 µM | > 10 µM |  |
| CNC(=O)c1c(-c2ccc(F)cc2)nn2c(F)cc(-c3cc(C(=O)NC4(c5ccccn5)CC4)ccc3C)cc12 | 0.002 to 0.25 µM | 0.002 to 0.25 µM |  |
| CCN(c1cn2nc(-c3ccc(F)cc3)c(C(=O)NC)c2cc1-c1cc(C(=O)NC2(c3ccccn3)CC2)ccc1C)S(C)(=O)=O | 0.002 to 0.25 µM | 0.002 to 0.25 µM |  |
| CNC(=O)c1c(-c2ccc(F)cc2)nn2ccc(-c3cc(C(=O)NC4(C(C)C)CC4)c(OC)cc3C)c(F)c12 | 0.002 to 0.25 µM | 0.002 to 0.25 µM |  |
| CNC(=O)c1c(-c2ccc(F)cc2)nn2ccc(-c3cc(C(=O)NC4(c5cc(C)on5)CC4)c(OC)cc3C)c(F)c12 | 0.002 to 0.25 µM | 0.002 to 0.25 µM |  |
| CNC(=O)c1c(-c2ccc(F)cc2)nn2cc(N(CCO)S(C)(=O)=O)c(OC)cc12 [drawing 50] | 1 to 10 µM | 1 to 10 µM |  |
| CCN(c1cn2nc(-c3ccc(F)cc3)c(C(=O)NC)c2cc1-c1cccc(C(=O)NC(C)(C)c2ccccc2)c1)S(C)(=O)=O [drawing 92] | 0.002 to 0.25 µM | 0.002 to 0.25 µM |  |
| CNC(=O)c1c(-c2ccc(F)cc2)nc2ccc(-c3cccc(C(=O)NC(C)(C)C)c3)cn12 [drawing 180] |  |  | IC50 ([2]; Table 2): 0.64 µM; EC50 ([3]; Table 2): 0.4 µM |
| CCN(c1cn2nc(-c3ccc(F)cc3)c(C(=O)NC)c2cc1C1CCCC1)S(C)(=O)=O | 0.25 to 1 µM | 1 to 10 µM |  |
| CNC(=O)c1c(-c2ccc(F)cc2)n(C)c2ccc(-c3cccc(C(=O)NC(C)(C)c4ccccc4)c3)cc12 | > 10 µM | > 10 µM |  |
| CNC(=O)c1c(-c2ccccc2)nn2cc(N3CCOC3=O)ccc12 | > 10 µM | > 10 µM |  |
| CNC(=O)c1c(-c2ccc(F)cc2)nc2ccc(-c3cc(C(=O)NC4(c5ccccn5)CC4)ccc3C)cn12 | 0.002 to 0.25 µM | 0.002 to 0.25 µM |  |
| CNC(=O)c1c(-c2ccccc2)nn2ccc(-c3cccc(C(=O)NC(C)(C)c4ccccc4)c3)cc12 | 0.002 to 0.25 µM | 0.002 to 0.25 µM |  |

| Compound | IC50 ([2]; Table 1) | EC50 ([3]; Table 1) | also measured |
| --- | --- | --- | --- |
| CNC(=O)c1c(-c2ccc(F)cc2)nn2ccc(-c3cc(C(=O)NC4(c5ncccn5)CC4)c(OC)cc3C)c(F)c12 | 0.002 to 0.25 µM | 0.002 to 0.25 µM |  |
| CNC(=O)c1c(-c2ccc(F)cc2)nc2ccc(-c3cccc(C(=O)NC(C)(C)c4ccccc4)c3)cn12 | 0.002 to 0.25 µM | 0.002 to 0.25 µM |  |
| CCc1ccccc1-c1ccc2c(C(=O)NC)c(-c3ccccc3)nn2c1 | > 10 µM | > 10 µM |  |
| CNC(=O)c1c(-c2ccc(F)cc2)nn2cccc(N)c12 | > 10 µM | > 10 µM |  |
| CNC(=O)c1c(-c2ccc(F)cc2)nn2ccc(NS(=O)(=O)c3ccc(OC(F)(F)F)cc3)cc12 | > 10 µM | > 10 µM |  |
| CNC(=O)c1c(-c2ccc(F)cc2)oc2ncc(-c3cc(C(=O)NC4(c5ccccn5)CC4)ccc3Cl)cc12 [drawing 113] | 0.002 to 0.25 µM | 0.002 to 0.25 µM |  |
| COC(=O)c1c(-c2ccccc2)nn2ccc(-c3cccc(C(=O)NC(C)(C)c4ccccc4)c3)cc12 | > 10 µM | > 10 µM |  |
| CNC(=O)c1c(-c2ccc(F)cc2)nn2cc(N(CCO)S(C)(=O)=O)c(C3CC3)cc12 | 0.002 to 0.25 µM | 1 to 10 µM |  |
| CCN(c1cn2nc(-c3ccc(F)cc3)c(C(=O)NC)c2cc1-c1ccccc1)S(C)(=O)=O | 0.002 to 0.25 µM | 0.25 to 1 µM |  |
| CNC(=O)c1c(-c2ccc(F)cc2)nn2ccc(-c3cc(C(=O)NC4(c5ccccn5)CC4)c(OC)cc3C)c(F)c12 [drawing 178] |  |  | IC50 ([2]; Table 2): 0.02 µM; EC50 ([3]; Table 2): 0.00839 µM |
| CNC(=O)c1c(-c2ccc(F)cc2)nn2ccc(-c3cc(C(=O)NC4(c5cccc(F)c5)CC4)c(OC)cc3C)c(F)c12 | 0.002 to 0.25 µM | 0.002 to 0.25 µM |  |
| CNC(=O)c1c(-c2ccc(F)cc2)[nH]c2ccc(-c3cccc(C(=O)NC(C)(C)c4ccccc4)c3)cc12 [drawing 80] | 0.25 to 1 µM | 0.25 to 1 µM |  |
| CNC(=O)c1c(-c2ccc(F)cc2)nn2cc(NC(=O)C(C)(C)C)c(C3CC3)cc12 | > 10 µM | > 10 µM |  |
| CNC(=O)c1c(-c2ccc(F)cc2)nn2ccc(NC(=O)OC(C)(C)C)cc12 | > 10 µM | > 10 µM |  |
| CNC(=O)c1c(-c2ccc(F)cc2)nn2ccc(NS(=O)(=O)c3cccc(OC)c3)cc12 | > 10 µM | > 10 µM |  |
| CNC(=O)c1c(-c2ccc(F)cc2)nn2ccc(-c3cc(C(=O)NC4(c5ccccn5)CC4)ccc3C)c(F)c12 [drawing 130] | 0.002 to 0.25 µM | 0.002 to 0.25 µM |  |
| CNC(=O)c1c(-c2ccc(F)cc2)nc2ccc(C3CC3C(=O)NC3(c4ccccn4)CC3)cn12 (centres unmarked) [drawing 159] | > 10 µM | > 10 µM |  |
| CNC(=O)c1c(-c2ccc(F)cc2)nn2ccc(-c3cccc(C(=O)NC(C)(C)C)c3)cc12 | 0.25 to 1 µM | 0.002 to 0.25 µM |  |
| CNC(=O)c1c(-c2ccccc2)nn2cc(-c3ccccc3OC)ccc12 | 1 to 10 µM | 1 to 10 µM |  |
| CNC(=O)c1c2cc(-c3cccc(C(=O)NC(C)(C)C)c3)ccc2nn1-c1ccc(F)cc1 | 1 to 10 µM | 1 to 10 µM |  |
| CNC(=O)c1c(-c2ccc(F)cc2)nn2ccc(N)cc12 | > 10 µM | > 10 µM |  |
| CNC(=O)c1c(-c2ccc(F)cc2)oc2ccc(-c3cc(C(=O)NC4(c5ccccn5)CC4)ccc3C)nc12 | 0.002 to 0.25 µM | 0.002 to 0.25 µM |  |
| CNC(=O)c1c(-c2ccc(F)cc2)nn2cc(-c3ccc(OC)cc3)ccc12 | > 10 µM | > 10 µM |  |
| CCN(c1cn2nc(-c3ccc(F)cc3)c(C(=O)NC)c2cc1C1CC1)S(C)(=O)=O | 0.002 to 0.25 µM | 0.002 to 0.25 µM |  |
| CNC(=O)c1c(-c2ccc(F)cc2)nc2ccc(-c3cccc(C(=O)NC4(c5ccccc5)CC4)c3)cn12 | 0.002 to 0.25 µM | 0.002 to 0.25 µM |  |
| CNC(=O)c1c(-c2ccc(F)cc2)nc2ccc(-c3cccc(C(=O)O)c3)cn12 | > 10 µM | > 10 µM |  |
